Publication PMC7556730 (Chemico-biological interactions, 2020)
“And” between values parts separate entries of the source, which are not always exact repeats. Identical values can stand only once. Marks after values point to notes of the source that are not given here.

Tests used:
microsomal CESs = test: Microsomal inhibition study with the CES inhibitor benzil; assay type: in vitro ADME, Sprague Dawley rats
cytosolic GSTs = test: Cytosolic inhibition study with the GST inhibitor ethacrynic acid; assay type: in vitro ADME, Sprague Dawley rats; conditions: for benoxacor depletion in control incubations: ethacrynic acid controls; for percent of benoxacor remaining: 5 minutes
[1] = system: cytochrome P450 enzymes (CYPs); test: Microsomal incubations with benoxacor in the presence of NADPH; assay type: in vitro ADME, Sprague Dawley rats; conditions: Sprague-Dawley, rat, liver microsomes
[2] = system: hepatic cytochrome P450 enzymes (CYPs) in rat liver microsomes; test: as above; assay type: in vitro ADME, Sprague Dawley rats; conditions: for percentage of benoxacor remaining: 0.1 mg/mL protein, 0.5 mM NADPH, 5 μM benoxacor
[3] = system: glutathione S-transferases (GSTs) in rat liver cytosol; test: Cytosolic incubations with benoxacor in the presence of GSH; assay type: in vitro ADME, Sprague Dawley rats; conditions: for percentage of benoxacor remaining: 1 mg/mL protein, 5 mM GSH, 5 μM benoxacor
[4] = system: glutathione S-transferases (GSTs); test: as above; assay type: in vitro ADME, Sprague Dawley rats; conditions: Sprague-Dawley, rat, liver cytosol
[5] = cited from earlier work
[6] = system: microsomal carboxylesterases (CESs); test: Incubations of active microsomes without NADPH; assay type: in vitro ADME, Sprague Dawley rats; conditions: male, Sprague-Dawley, rat, liver microsomes
[7] = system: microsomal carboxylesterases (CESs) in rat liver microsomes; test: Incubations of active microsomes without NADPH; assay type: in vitro ADME, Sprague Dawley rats

## CC1COc2ccccc2N1C(=O)C(Cl)Cl (stereo not shown) [benoxacor, Benoxacor]
Microsomal CESs; benzil controls, 5, 50 and 500 nM
  benoxacor depletion in control incubations: 100±1%
Microsomal CESs; male rat liver microsomes without NADPH, 30 minutes, benzil 5 to 500 nM
  depletion of benoxacor in the presence of benzil: not depleted
Microsomal CESs; male rat liver microsomes without NADPH, 30 minutes, without benzil
  percent of benoxacor remaining: 92±2%
Cytosolic GSTs; 10 μM
  benoxacor depletion in control incubations: 100±1%
Cytosolic GSTs; 100 μM
  benoxacor depletion in control incubations: 102±1%
Cytosolic GSTs; 1000 μM
  benoxacor depletion in control incubations: 100±1%
Cytosolic GSTs; female rat cytosol with GSH, 1000 μM ethacrynic acid
  percent of benoxacor remaining: 98±2%
Cytosolic GSTs; female rat cytosol with GSH, without inhibitor
  percent of benoxacor remaining: 71±3%
Cytosolic GSTs; male rat preparations with GSH, with ethacrynic acid
  percent of benoxacor remaining: 96±2%
Cytosolic GSTs; male rat preparations with GSH, without inhibitor
  percent of benoxacor remaining: 64±1%
[1]; female
  microsomal CLint: 1280 µL/min/mg
[1]; male
  microsomal CLint: 1110 µL/min/mg
[2]; female rat
  CYP Scaled CLint: 57.80 mL/min/g liver
[2]; female rat liver microsomes with NADPH, 30 minutes
  enantiomeric fraction (EF = A1/(A1+A2)): 0.67±0.01 and 0.67
[2]; female rat liver microsomes with NADPH, start of 30-minute time-course
  enantiomeric fraction (EF = A1/(A1+A2)): 0.48
[2]; female rat liver microsomes, 30 minutes
  percentage of benoxacor remaining: 48±1%
[2]; male rat
  CYP Scaled CLint: 50.13 mL/min/g liver
[2]; male rat liver microsomes with NADPH, 30 minutes
  enantiomeric fraction (EF = A1/(A1+A2)): 0.60±0.01 and 0.60
[2]; male rat liver microsomes with NADPH, start of 30-minute time-course
  enantiomeric fraction (EF = A1/(A1+A2)): 0.48
[2]; male rat liver microsomes, 30 minutes
  percentage of benoxacor remaining: 45±1%
[3]; female rat liver cytosol with GSH, 30 minutes
  enantiomeric fraction (EF): 0.54±0.01
[3]; female rat liver cytosol with GSH, start of 30-minute time-course
  enantiomeric fraction (EF): 0.48
[3]; female rat liver cytosol, 30 minutes
  percentage of benoxacor remaining: 18±2%
[3]; female rat, significantly different from male (p = 0.0038)
  GST Scaled CLint: 25.87^a mL/min/g liver
[3]; male rat
  GST Scaled CLint: 40.18 mL/min/g liver
[3]; male rat liver cytosol with GSH, 30 minutes
  enantiomeric fraction (EF): 0.43±0.01 and 0.43
[3]; male rat liver cytosol with GSH, start of 30-minute time-course
  enantiomeric fraction (EF): 0.47
[3]; male rat liver cytosol, 30 minutes
  percentage of benoxacor remaining: 9±2%
[4]; female
  microsomal CLint: 280 µL/min/mg
[4]; male
  microsomal CLint: 440 µL/min/mg
[5]
  experimental solubility: 22 ± 1.7 µg/mL
[6]
  microsomal CLint: 150 µL/min/mg
[7]; active female rat microsomes without NADPH, 30 minutes
  enantiomeric fraction (EF): 0.47
[7]; active female rat microsomes without NADPH, initial value
  enantiomeric fraction (EF): 0.48
[7]; active male rat microsomes without NADPH, initial value
  enantiomeric fraction (EF): 0.48
[7]; male rat
  CES Scaled CLint: 6.74 mL/min/g liver

## O=C(C(=O)c1ccccc1)c1ccccc1 [benzil, Benzil, reference compound]
Microsomal CESs; male rat liver microsomes without NADPH, 30 minutes, 5, 50, 500 nM
  inhibition of the loss of benoxacor by the CES inhibitor: significantly inhibited
